In patent US8809352B2, “Sulfonamides as inhibitors of Bcl-2 family proteins for the treatments of cancer” (Novartis AG, priority 2009, dated 2014):

Target: BCL2 (Homo sapiens, UniProt P10415)
Experiment: Biacore SPR solution inhibition assay of BCL-2 binding to peptide derivatized sensor surfaces
Settings: SPR competition; 56 nM BCL2 pre-equilibrated with compound one hour; biotinylated BAK, BAD and NOXA peptide surfaces; 25° C.
How it was run: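 Solution-competition SPR at 25 °C in HEPES pH 7.4 buffer with 1.25 mM DTT and 3% DMSO: compounds (6-point threefold series, 16 μM to 0.004 nM) pre-equilibrated 1 h with 56 nM BCL2, then injected over captured biotinylated BAK, BAD and NOXA peptide surfaces. Binding levels relative to BCL2-only controls gave % inhibition.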

Sequence of BCL2 (P10415 whole entry): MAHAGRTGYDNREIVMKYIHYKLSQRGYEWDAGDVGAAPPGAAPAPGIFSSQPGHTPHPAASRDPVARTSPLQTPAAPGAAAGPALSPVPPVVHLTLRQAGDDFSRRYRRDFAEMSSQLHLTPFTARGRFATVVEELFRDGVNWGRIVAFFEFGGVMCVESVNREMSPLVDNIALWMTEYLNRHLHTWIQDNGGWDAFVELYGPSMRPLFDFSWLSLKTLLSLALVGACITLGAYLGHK

SMILES | IC50
CC1(C)CCC(CN2CCC(N3CCc4c(ncnc4NS(=O)(=O)c4ccc(N[C@H](CCN5CCOCC5)CSc5ccccc5)c(S(=O)(=O)C(F)(F)F)c4)C3)CC2)=C(c2ccc(Cl)cc2)C1 [Example 16, (R)-N-(7-(1-((2-(4-chlorophenol)-4,4-dimethylcyclohex-1-enyl)methyl)piperidin-4-yl)-5,6,7,8-tetrahydropyrido[3,4-d]pyrimidin-4-yl)-4-(4-morpholino-1-(phenylthio)butan-2-ylamino)-3-(trifluoromethylsulfonyl)benzenesulfonamide] | 41 nM
CN(C)CC[C@H](CSc1ccccc1)Nc1ccc(S(=O)(=O)Nc2nc(C(F)(F)F)nc3c2CCN(C2CCN(Cc4ccccc4-c4ccc(Cl)cc4)CC2)C3)cc1[N+](=O)[O-] [Example 71, (R)-N-(7-(1-((4′-chlorobiphenyl-2-yl)methyl)piperidin-4-yl)-2-(trifluoromethyl)-5,6,7,8-tetrahydropyrido[3,4-d]pyrimidin-4-yl)-4-(4-(dimethylamino)-1-(phenylthio)butan-2-ylamino)-3-nitrobenzenesulfonamide] | 20 nM
[2H]C1(N2CCc3c(ncnc3NS(=O)(=O)c3ccc(N[C@H](CCN4CCCC4)CSc4ccccc4)c(S(=O)(=O)C(F)(F)F)c3)C2)CCN(CC2=C(c3ccc(Cl)cc3)CC(C)(C)CC2)CC1 [Example 85, (R)-N-(7-(1-((2-(4-chlorophenyl)-4,4-dimethylcyclohex-1-enyl)methyl)-4-deuteropiperidin-4-yl)-5,6,7,8-tetrahydropyrido[3,4-d]pyrimidin-4-yl)-4-(1-(phenylthio)-4-(pyrrolidin-1-yl)butan-2-ylamino)-3-(trifluoromethylsulfonyl)benzenesulfonamide] | 30 nM
CN(C)CC[C@H](CSc1ccccc1)Nc1ccc(S(=O)(=O)Nc2ncnc3c2CCN(C2CCN(Cc4ccccc4-c4ccc(Cl)cc4)CC2)C3)cc1[N+](=O)[O-] [Example 1, N-{7-[1-(4′-Chloro-biphenyl-2-ylmethyl)-piperidin-4-yl]-5,6,7,8-tetrahydro-pyrido[3,4-d]pyrimidin-4-yl}-4-((R)-3-dimethylamino-1-phenylsulfanylmethyl-propylamino)-3-nitro-benzenesulfonamide] | 100 nM
CN(C)CC[C@H](CSc1ccccc1)Nc1ccc(S(=O)(=O)Nc2ncnc3c2CCN(C2CCN(CC4=C(c5ccc(Cl)cc5)CC(C)(C)CC4)CC2)C3)cc1S(=O)(=O)C(F)(F)F [Example 17, (R)-N-(7-(1-((2-(4-chlorophenyl)-4,4-dimethylcyclohex-1-enyl)methyl)piperidin-4-yl)-5,6,7,8-tetrahydropyrido[3,4-d]pyrimidin-4-yl)-4-(4-(dimethylamino)-1-(phenylthio)butan-2-ylamino)-3-(trifluoromethylsulfonyl)benzenesulfonamide] | 22 nM
CN(C)CC[C@H](CSc1ccccc1)Nc1ccc(S(=O)(=O)Nc2ncnc3c2CCN(C2CCN(Cc4ccc(F)cc4-c4ccc(Cl)cc4)CC2)C3)cc1S(=O)(=O)C(F)(F)F [Example 19, (R)-N-(7-(1-((4′-chloro-5-fluorobiphenyl-2-yl)methyl)piperidin-4-yl)-5,6,7,8-tetrahydropyrido[3,4-d]pyrimidin-4-yl)-4-(4-(dimethylamino)-1-(phenylthio)butan-2-ylamino)-3-(trifluoromethylsulfonyl)benzenesulfonamide] | 35 nM
CN(C)CC[C@H](CSc1c(Cl)cccc1Cl)Nc1ccc(S(=O)(=O)Nc2ncnc3c2CCN(C2CCN(Cc4ccccc4-c4ccc(Cl)cc4)CC2)C3)cc1S(=O)(=O)C(F)(F)F [Example 38, (R)-N-(7-(1-((4′-chlorobiphenyl-2-yl)methyl)piperidin-4-yl)-5,6,7,8-tetrahydropyrido[3,4-d]pyrimidin-4-yl)-4-(1-(2,6-dichlorophenylthio)-4-(dimethylamino)butan-2-ylamino)-3-(trifluoromethylsulfonyl)benzenesulfonamide] | 41 nM
CC1CC(N2CCn3c(nnc3NS(=O)(=O)c3ccc(N[C@H](CCN4CCOCC4)CSc4ccccc4)c(S(=O)(=O)C(F)(F)F)c3)C2)CCN1Cc1ccccc1-c1ccc(Cl)cc1 (stereo partly drawn) [Example 96, N-{7-[1-(4′-Chloro-biphenyl-2-ylmethyl)-2-methyl-piperidin-4-yl]-5,6,7,8-tetrahydro-[1,2,4]triazolo[4,3-a]pyrazin-3-yl}-4-((R)-3-morpholin-4-yl-1-phenylsulfanylmethyl-propylamino)-3-trifluoromethanesulfonyl-benzenesulfonamide] | 144 nM
O=[N+]([O-])c1cc(S(=O)(=O)Nc2ncnc3c2CCN(C2CCN(Cc4ccccc4-c4ccc(Cl)cc4)CC2)C3)ccc1N[C@H](CCN1CCOCC1)CSc1ccccc1 [Example 58] | 66 nM
CN(C)CC[C@H](CSc1ccccc1)Nc1ccc(S(=O)(=O)Nc2ncnc3c2CCN(C2CCN(Cc4ccccc4-c4ccc(Cl)cc4)CC2)C3)cc1S(=O)(=O)C(F)(F)F [Example 11, (R)-N-(7-(1((4′-chlorobiphenyl-2-yl)methyl)piperidin-4-yl)-5,6,7,8-tetrahydropyrido[3,4-d]pyrimidin-4-yl)-4-(4-(dimethylamino)-1-(phenylthio)butan-2-ylamino)-3-(trifluoromethylsulfonyl)benzenesulfonamide] | 20 nM
CN(C)CC[C@H](CSc1ccc(F)cc1)Nc1ccc(S(=O)(=O)Nc2ncnc3c2CCN(C2CCN(Cc4ccccc4-c4ccc(Cl)cc4)CC2)C3)cc1S(=O)(=O)C(F)(F)F [Example 37, N-{7-[1-(4′-Chloro-biphenyl-2-ylmethyl)-piperidin-4-yl]-5,6,7,8-tetrahydro-pyrido[3,4-d]pyrimidin-4-yl}-4-[(R)-3-dimethylamino-1-(4-fluoro-phenylsulfanylmethyl)-propylamino]-3-trifluoromethanesulfonyl-benzenesulfonamide] | 58 nM
[2H]C1(N2CCc3c(ncnc3NS(=O)(=O)c3ccc(N[C@H](CCN(C)C)CSc4ccccc4)c(S(=O)(=O)C(F)(F)F)c3)C2)CCN(Cc2cc(F)ccc2-c2ccc(Cl)cc2)CC1 [Example 73, (R)-N-(7-(1-((4′-chloro-4-fluorobiphenyl-2-yl)methyl)-4-deuteropiperidin-4-yl)-5,6,7,8-tetrahydropyrido[3,4-d]pyrimidin-4-yl)-4-(4-(dimethylamino)-1-(phenylthio)butan-2-ylamino)-3-(trifluoromethylsulfonyl)benzene sulfonamide] | 26 nM
[2H]C1(N2CCc3c(ncnc3NS(=O)(=O)c3ccc(N[C@H](CCN4CC5CCC(C4)O5)CSc4ccccc4)c(S(=O)(=O)C(F)(F)F)c3)C2)CCN(Cc2cc(F)ccc2-c2ccc(Cl)cc2)CC1 [Example 80, 4-((2R)-4-(8-oxa-3-azabicyclo[3.2.1]octan-3-yl)-1-(phenylthio)butan-2-ylamino)-N-(7-(1-((4′-chloro-4-fluorobiphenyl-2-yl)methyl)-4-deuteropiperidin-4-yl)-5,6,7,8-tetrahydropyrido[3,4-d]pyrimidin-4-yl)-3-(trifluoromethylsulfonyl)benzenesulfonamide] | 225 nM
[2H]C1(N2CCc3c(ncnc3NS(=O)(=O)c3ccc(N[C@H](CCN4CCOCC4)CSc4ccccc4)c(S(=O)(=O)C(F)(F)F)c3)C2)CCN([C@H](C)c2ccccc2-c2ccc(Cl)cc2)CC1 [Example 86, N-(7-{1-[(R)-1-(4′-Chloro-biphenyl-2-yl)-ethyl]-4-deuteropiperidin-4-yl}-5,6,7,8-tetrahydro-pyrido[3,4-d]pyrimidin-4-yl)-4-((R)-3-morpholin-4-yl-1-phenylsulfanylmethyl-propylamino)-3-trifluoromethanesulfonyl-benzenesulfonamide] | 46 nM
